Laboratory results from PubChem BioAssay AID2060340 (Molecular Pharmacology Branch, DTP, NCI, 2025).
pIC50: −log10 of the molar value. Several values for one entry are separate records, joined by “and”; a condition that tells them apart may be missing. Identical values can stand only once.

Tested on: 349418-098-R-PDC spheroids, viability, % test/control
Test: Anticancer human tumor 349418-098-R-PDC patient-derived lung adenocarcinoma cell line growth inhibition [IpAb]
Settings: spheroids with HUVEC and MSC; for viability, T/C: stronger effect = lower value
Text: Combinatorial screen of targeted agents with ipatasertib and abemaciclib in multi-cell type tumor spheroids
A high-throughput screen of multi-cell type tumor spheroids was designed to identify active combinations of targeted small molecules and ipatasertib or abemaciclib. Complex spheroids include a stromal component modeled by human endothelial cells (HUVEC) and fibroblasts modeled by human mesenchymal stem cells (MSCs). The concentration ranges selected for each drug and investigational agent were based upon clinically achievable concentrations if the clinical Cmax of the agent was known.
Compounds. The drugs and investigational agents: ipatasertib (NSC767898), abemaciclib(NSC768073), selumetinib (NSC741078), trametinib (758246), adavosertib (NSC754352), everolimus (NSC733504), sapanisertib (NSC764658), vemurafenib (NSC761431), venetoclax (NSC766270), copanlisib (NSC809693), apelisib (NSC765974), palbociblib (NSC758247), vemurafenib (NSC761431), dabrafenib (NSC764134), ravoxertinib (NSC781343), BMS-387032 (NSC767048), sotorasib (NSC818433), talazoparib (NSC767125) and afursertib (NSC778305), were obtained from the National Cancer Institute (NCI) Developmental Therapeutics Program Chemical Repository. The FDA-approved anticancer drug set is available from the NCI Developmental Therapeutics Program. […] The stock solutions were prepared in dimethyl sulfoxide (DMSO, Sigma-Aldrich, St. Louis, MO, cat. D2650) at 800-fold the tested concentration and stored at -70 degrees C prior to their use. All drugs and investigational agents were tested over a range starting from a high concentration at or near the clinical Cmax and decreasing in half-log increments. If the clinical Cmax for an agent had not been determined, the highest concentration tested was 10 microM.
NCI60 Cell Culture. NCI60 cell lines were obtained from the NCI Developmental Therapeutics Program Tumor Repository. For each lot of cells, the Repository performed Applied Biosystems AmpFLSTR Identifiler testing with PCR amplification to confirm consistency with the published Identifier STR profile for each cell line. Cells were kept in continuous culture for no more than 20 passages. The optimal seeding densities for each of the cell lines at each time point assessed were determined prior to performing the concentration response studies. Briefly, the NCI60 human tumor lines were grown as monolayers in RPMI 1640 medium supplemented with 10% FBS and 2 mmol/L L-glutamine.
An additional 9 lines were from the NCI60 cell line panel including MDA-MB-231 breast carcinoma, MDA-MB-468 breast carcinoma, MCF7 breast carcinoma, Hs578T breast carcinoma, MALME-3M melanoma, SK-MEL-2 melanoma, SK-OV-3 ovarian carcinoma, DU-145 prostate carcinoma, PC-3 prostate carcinoma, all cell lines along with major genetic alterations are listed on Table 2. Pooled donor human umbilical vein endothelial cells (HUVEC, Lonza, cat. CC-2519) and human mesenchymal stem cells (hMSC, Lonza, cat. PT-2501) were purchased from Lonza (Walkersville, MD).
PDMR cell lines were grown in complete medium (DC medium): Dulbecco's modified Eagle's medium (DMEM)/F12 supplemented with 5% fetal bovine serum (FBS), 2 mM L-glutamine, 100 U/mL penicillin and 100 µg/ml streptomycin, 0.4 µg/ml hydrocortisone, 10 ng/ml epidermal growth factor (EGF) recombinant human protein, 24 µg/mL adenine, and 0.1 mg/mL primocin. During culture from frozen stock vials, PDMR cells were cultured in the same medium containing 10 µM Y-27632 (see Table 3). The PDCs were cultured in complete DMEM/F12 media without 10 microM Y-27632 dihydrochloride for at least two passages prior to the screen. The pooled donor HUVEC and hMSC were cultured in endothelial cell growth medium 2 (PromoCell, Heidelberg, Germany, cat. C-22011) and mesenchymal stem cell growth medium 2 (PromoCell, cat. C-28009), respectively. For all experiments, HUVEC and hMSC were used at passages </=5.
[…]
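Also: spheroids exposed to compounds for 7 days.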

`C=CC(=O)N1CCN(c2nc(=O)n(-c3c(C)ccnc3C(C)C)c3nc(-c4c(O)cccc4F)c(F)cc23)C(C)C1` (configuration not stated) was tested, and the viability, T/C (compound 0.0316 µM) was 109% and 107%, the viability, T/C (compound 0.1 µM) was 107% and 104% and the viability, T/C (compound 0.316 µM) was 105% and 94.1%. For the same compound, the viability, T/C (compound 1 µM) was 102% and 96.4%, the viability, T/C (compound 3.16 µM) was 72.9% and 76.2% and the viability, T/C (compound 10 µM) was 48.9% and 38%. For the same compound, the pIC50 (curve of compound) was 5.02 and 5.15.
For `Cn1ncnc1[C@H]1c2n[nH]c(=O)c3cc(F)cc(c23)N[C@@H]1c1ccc(F)cc1` + CCN1CCN(Cc2ccc(Nc3ncc(F)c(-c4cc(F)c5nc(C)n(C(C)C)c5c4)n3)nc2)CC1, the pIC50 (curve of first compound, second compound 0.01 µM) was 7.27, the pIC50 (curve of first compound, second compound 0.0316 µM) was greater than 9.50 and the pIC50 (curve of first compound, second compound 0.1 µM) was greater than 9.50. The pIC50 (curve of first compound, second compound 0.316 µM) was greater than 9.50, the pIC50 (curve of first compound, second compound 1 µM) was greater than 9.50 and the viability, T/C (second compound 0.01 µM, first compound 0.000316 µM) was 70.5%. For the same compound, the viability, T/C (second compound 0.01 µM, first compound 0.001 µM) was 67.8%, the viability, T/C (second compound 0.01 µM, first compound 0.00316 µM) was 73.1% and the viability, T/C (second compound 0.01 µM, first compound 0.01 µM) was 64%. The viability, T/C (second compound 0.01 µM, first compound 0.0316 µM) was 55.2%, the viability, T/C (second compound 0.01 µM, first compound 0.1 µM) was 44.5% and the viability, T/C (second compound 0.0316 µM, first compound 0.000316 µM) was 38.7%. It also gave a viability, T/C (second compound 0.0316 µM, first compound 0.001 µM) of 50.5%, a viability, T/C (second compound 0.0316 µM, first compound 0.00316 µM) of 52.7% and a viability, T/C (second compound 0.0316 µM, first compound 0.01 µM) of 36%. It also gave a viability, T/C (second compound 0.0316 µM, first compound 0.0316 µM) of 36.5%, a viability, T/C (second compound 0.0316 µM, first compound 0.1 µM) of 25.2% and a viability, T/C (second compound 0.1 µM, first compound 0.000316 µM) of 28.1%. The viability, T/C (second compound 0.1 µM, first compound 0.001 µM) was 22.9%, the viability, T/C (second compound 0.1 µM, first compound 0.00316 µM) was 23.9% and the viability, T/C (second compound 0.1 µM, first compound 0.01 µM) was 23.2%. It also gave a viability, T/C (second compound 0.1 µM, first compound 0.0316 µM) of 17.5%, a viability, T/C (second compound 0.1 µM, first compound 0.1 µM) of 16.4% and a viability, T/C (second compound 0.316 µM, first compound 0.000316 µM) of 14.6%. For the same compound, the viability, T/C (second compound 0.316 µM, first compound 0.001 µM) was 19.8%, the viability, T/C (second compound 0.316 µM, first compound 0.00316 µM) was 16.2% and the viability, T/C (second compound 0.316 µM, first compound 0.01 µM) was 17.8%. For the same compound, the viability, T/C (second compound 0.316 µM, first compound 0.0316 µM) was 16.9%, the viability, T/C (second compound 0.316 µM, first compound 0.1 µM) was 13.1% and the viability, T/C (second compound 1 µM, first compound 0.000316 µM) was 16.2%. It also gave a viability, T/C (second compound 1 µM, first compound 0.001 µM) of 17.6%, a viability, T/C (second compound 1 µM, first compound 0.00316 µM) of 16.2% and a viability, T/C (second compound 1 µM, first compound 0.01 µM) of 13%. It also gave a viability, T/C (second compound 1 µM, first compound 0.0316 µM) of 14.9% and a viability, T/C (second compound 1 µM, first compound 0.1 µM) of 12.8%.
